Reference: article PMC3567233 (Biochemistry, 2012)

System: M. bovis BCG transmembrane potential (ΔΨ)
Type: cell-based, Mycobacterium bovis BCG
Conditions: pH 7.2

With `N#CC(C#N)=NNc1cccc(Cl)c1` [CCCP, carbonyl cyanide m-chlorophenylhydrazone] the “DiOC2 red / green fluorescence ratio, M. bovis” value was 0.086±0.003.
